Converted amounts (≈) assume the structure as drawn.

Experiment [1] can be described thus: Inhibition of Mycobacterium tuberculosis Anthranilate phosphoribosyltransferase expressed in Escherichia coli BL21(DE3) pRIL cells harboring PRAI-InGPS preincubated for 10 mins followed by anthranilate addition in presence of PRPP.
The test system of experiment [2] is Mycobacterium tuberculosis. Nature of the experiment: Inhibition of Mycobacterium tuberculosis Anthranilate phosphoribosyltransferase expressed in Escherichia coli BL21(DE3) pRIL cells harboring PRAI-InGPS assessed as residual activity preincubated for 10 mins followed by anthranilate addition in presence of PRPP relative to control.
Experiment [3] concerns Mycobacterium tuberculosis. Nature of the experiment: Antimycobacterial activity against isoniazid resistant Mycobacterium tuberculosis BAA-812 incubated for 2 weeks. It counts as functional. Conditions: BAA-812, 336 h.
In experiment [4] the test system is Mycobacterium tuberculosis. Nature of the experiment: Antimycobacterial activity against isoniazid/streptomycin resistant Mycobacterium tuberculosis 01-R0348 incubated for 2 weeks. The settings on record: 01-R0348, 336 h. It counts as functional.
The subject of experiment [5] is Mycobacterium tuberculosis. In words: Antimycobacterial activity against ofloxacin resistant Mycobacterium tuberculosis CI-10 incubated for 2 weeks. Conditions: CI-10, 336 h. It counts as functional.
Experiment [6] deals with Mycobacterium tuberculosis. Nature of the experiment: Antimycobacterial activity against streptomycin resistant Mycobacterium tuberculosis 98-01436 incubated for 2 weeks. Conditions: 98-01436, 336 h. It counts as functional.
In experiment [7] the test system is Mycobacterium tuberculosis. In words: Antimycobacterial activity against ofloxacin/isoniazid resistant Mycobacterium tuberculosis CI-14 incubated for 2 weeks. It counts as functional. Conditions: CI-14, 336 h.

For the compound `Cc1ccc(C(=O)O)c(Nc2c(C)cccc2C(=O)O)c1`, in experiment [1], the concentration for half-maximal inhibition (IC50) was determined as 6.8 µM.
The same measure, in the same setting: then `Cc1cccc(C(=O)O)c1Nc1cc(Br)ccc1C(=O)O`, with 3.3 µM; and `Cc1cccc(C(=O)O)c1Nc1cc(Cl)ccc1C(=O)O`, with 5.8 µM.
With `O=C(O)c1ccccc1Nc1cccc(Nc2ccccc2C(=O)O)c1C(=O)O`, the IC50 in experiment [1] was 2.2 µM. Moreover, the Activity in experiment [2] is 6%.
Regarding `N#C[C@@H]1N[C@@H](CO)[C@H]1c1ccc(-c2ccccc2F)cc1`, the MIC90 in experiment [3] stood at 3 µM (≈ 0.847 µg/mL); in experiment [4], 1.6 µM (≈ 0.452 µg/mL); in experiment [5] it was 1.6 µM (≈ 0.452 µg/mL); in experiment [6], 1.6 µM (≈ 0.452 µg/mL); in experiment [7], 3 µM (≈ 0.847 µg/mL).

The IC50 is the midpoint of a concentration-inhibition curve. One may read the MIC90 as the lowest concentration that inhibits either 90% of growth or 90% of the strains tested, depending on the study. A lower MIC90 goes with greater potency.
